Legend:
[1] = tested on: colon cancer strain highly metastasizable to liver (MOUSE COLON 26); assay: Inhibition of metastasis of colon cancer to liver; type: in vivo, BALB/c mouse; details: for Number of visible tumor tubers (average ± SD): liver
Description: The abdomen of a BALB/c mouse was sectioned, and 2 × 10^4 cells of a colon cancer strain highly metastasizable to liver (MOUSE COLON 26) were injected into the portal vein. Zeaxanthin (4 µg/mouse in Test Example 1; 40 µg/mouse in Test Example 2; 400 µg/mouse in Test Example 3) and all-trans retinoic acid (ATRA) as a positive control were orally administered everyday for 5 consecutive days after the inoculation with tumor cells and then the administration was discontinued for 2 days. The cycle of the 5-day administration and the 2-day discontinuation was repeated twice. Twenty days later, the mouse was sacrificed, and the number of visible tumor tubers in the liver was counted. In Table 2, the mark "*" indicates a significant difference when p < 0.005 (Whitney's U-test).

lung cancer = assay: Inhibition of carcinogenesis (lung), 4-nitroquinoline-1-oxide initiator / glycerin promoter; type: in vivo, ddY mice
Description: As a carcinogenesis initiator, 4-nitroquinoline-1-oxide dissolved in a solution of olive oil and cholesterol mixed in the ratio of 20:1 was administered subcutaneously in a single dose to ddY mice (a control group of 15 mice and a test group of 15 mice) in an amount of 10 mg/3.3ml/kg weight. Four weeks after administration, an 8% water solution of glycerin as a carcinogenesis promoter was given to the mice of the control group as drinking water for 25 weeks in a manner such that they could take it freely. (The duration of carcinogenesis promotion was 25 weeks).
In a manner similar to that for the control group, the carcinogenesis initiator was subcutaneously administered to the mice of the test group, and 4 weeks after the administration, an 8% water solution of glycerin as a carcinogenesis promoter was given to the mice of the test group as drinking water for 25 weeks in a manner such that they could take it freely, while zeaxanthin suspended in a liquid mixture of olive oil and "Tween 80" was forcibly administered to the mice of the test group 3 times a week throughout the 25-week duration of carcinogenesis promotion in an amount of 0.2 g per mouse per administration.
In addition, food and drinking water was given to the mice in a manner such that they could take it freely. Twenty five weeks after the start of the administration of zeaxanthin, that is, after the duration of carcinogenesis promotion was completed, the mice of both the control group and the test group were sacrificed, and the number of mice in which lung cancer occurred, and the average number of tumors were counted.
(§1) In Table 4, those values in parentheses indicate values obtained by dividing the number of mice in each group in which lung cancer occurred by the total number of mice in each group. The average number of tumors was obtained by dividing the total number of tumors in all mice in each group by the total number of mice in each group.

skin cancer = assay: Inhibition of carcinogenesis (skin), 7,12-dimethylbenz[a]anthracene / TPA; type: in vivo, ICR male mouse
Description: The back of an ICR male mouse (control group: 15 mice; test group: 14 mice) was shaved, and 100 µg of 7,12-dimethylbenz[a]anthracene in 100 µl of acetone was applied thereto. Two days after the application, application of 1.6 nmol of 12-O-tetradecanoylphorbal-13-acetate (TPA) in 100 µl of acetone was begun and repeated twice a week. The duration of carcinogenesis promotion was set to 15 weeks.
An hour before every TPA application, 160 nmol zeaxanthin (which makes the molar ratio of TPA to zeaxanthin 1:100) in 100 µl of acetone was applied to the mice of test group. After the 15-week duration of carcinogenesis promotion, the ratio of occurrence of skin tumor and the average number of tumors were measured.
as §1, with “5,” for “4,”, “skin” for “lung”

B16-BL6 melanoma cells = assay: Inhibition of invasion of basement membrane (Transwell chamber); type: cell-based; details: 4 hours
Description: The action mechanism of zeaxanthin for inhibiting metastasis of colon cancer to the liver in Example 2 was examined using a Transwell chamber.
A chamber which is separated into two layers (upper and lower layers) by a membrane filter having pores of 8 µm in diameter was used, the upper surface of the filter being coated with 5 µg of matrigel (a substrate for restructuring a basement membrane), and the lower surface being coated with 1 µg of fibronectin. B16-BL6 melanoma cells having a cell density of […] were added to the upper layer of the chamber, and were incubated in a 5%-CO2 incubator at 37°C for 4 hours in the presence of 0.05∼500 µM of zeaxanthin. After the incubation, the number of cells which invaded the surface of the lower part of the filter and shifted thereto were counted using an optical microscope. […]

[2] = tested on: Naturally Occurring Hepatoma; assay: Carcinogenesis-inhibiting effect with regard to naturally occurring hepatoma; type: in vivo, C3H/He female mice
Description: C3H/He female mice (control group: 14 mice; test group: 12 mice), in which hepatoma is known to occur naturally, were allowed to freely take food and water for 40 weeks. For the mice of the test group, 20 mg zeaxanthin (having a purity of 98.5%) which was obtained in a manner similar to that of the above example of production of zeaxanthin was suspended in 1 ml dimethyl sulfoxide (DMSO), and thereafter the suspension was added to the drinking water of the test so that the final concentration of zeaxanthin was 0.005%. On the other hand, for the control group, only DMSO in the same amount was added to the drinking water. At the end of the 40 weeks, both groups of mice were sacrificed, and the number of tumors which occurred in the liver was counted.

[3] = Acute toxicity test on mice; set-up: species or system mouse (ICR male); details: mouse, in vivo; oral by gastric probe, 1000 or 2000 mg/kg, n=3, 7 days observation; approximate, estimated from survival rate
Description: Using a gastric probe, zeaxanthin (having a purity of 98.5%) was forcibly orally administered to each mouse (ICR male weighing 20∼25 g, n=3) in an amount of 1000 or 2000 mg/kg. After the oral administration, the mice were reared in a cage for 7 days to observe the number of deaths and general conditions. An approximate median lethal dose (LD50, in mg/kg) was estimated from the survival rate of the mice after observation.

[4] = from average number of tumors, test group versus control group

CC1=C(/C=C/C(C)=C/C=C/C(C)=C/C(=O)O)C(C)(C)CCC1 [ATRA, all-trans retinoic acid, reference compound]
Number of visible tumor tubers (average ± SD) ([1]; positive control, orally, dose not given, twenty days later, * p < 0.005): 0.83 ± 1.17*
Average weight of liver ([1]; positive control, orally, dose not given, twenty days later): 0.92 g

CC1=C(/C=C/C(C)=C/C=C/C(C)=C/C=C/C=C(C)/C=C/C=C(C)/C=C/C2=C(C)C[C@@H](O)CC2(C)C)C(C)(C)C[C@H](O)C1 [zeaxanthin]
Average number of tumors (lung cancer; 0.2 g per mouse per administration, 3 times a week, 25 weeks (control 1.40)): 0.38
Number of mice in which lung cancer occurred (divided by total number of mice) (lung cancer; 0.2 g per mouse per administration, 3 times a week, 25 weeks (control 73%)): 33%
Number of mice in which lung cancer occurred (lung cancer; 0.2 g per mouse per administration, 3 times a week, 25 weeks, 15 mice (control 11 of 15)): 5
Inhibition ratio of carcinogenesis (lung cancer; [4]): 73%
Average number of tumors (skin cancer; 160 nmol applied an hour before every TPA application, 15 weeks (control 1.60)): 0.86
Number of mice in which skin cancer occurred (divided by total number of mice) (skin cancer; 160 nmol applied an hour before every TPA application, 15 weeks (control 47%)): 21%
Number of mice in which skin cancer occurred (skin cancer; 160 nmol applied an hour before every TPA application, 15 weeks, 14 mice (control 7 of 15)): 3
Inhibition ratio of carcinogenesis (skin cancer; [4]): 46%
Number of visible tumor tubers (average ± SD) ([1]; 4 µg/mouse orally, 5 days on / 2 days off, cycle repeated twice, twenty days later (no administration 12.25 ± 6.13)): 6.86 ± 2.27
Average weight of liver ([1]; 4 µg/mouse orally, twenty days later (no administration 2.16)): 1.36 g
Number of visible tumor tubers (average ± SD) ([1]; 40 µg/mouse orally, 5 days on / 2 days off, cycle repeated twice, twenty days later, * p < 0.005): 1.87 ± 1.96*
Average weight of liver ([1]; 40 µg/mouse orally, twenty days later): 0.99 g
Number of visible tumor tubers (average ± SD) ([1]; 400 µg/mouse orally, 5 days on / 2 days off, cycle repeated twice, twenty days later, * p < 0.005): 1.00 ± 2.13*
Average weight of liver ([1]; 400 µg/mouse orally, twenty days later): 0.99 g
Number of cells which invaded/shifted to basement membrane (B16-BL6 melanoma cells; 0.05 µM, 37°C (DMSO only 157 ± 21)): 137 ± 17
Number of cells which invaded/shifted to basement membrane (B16-BL6 melanoma cells; 0.5 µM, 37°C): 119 ± 17
Number of cells which invaded/shifted to basement membrane (B16-BL6 melanoma cells; 5 µM, 37°C, * p < 0.05): 109 ± 12*
Number of cells which invaded/shifted to basement membrane (B16-BL6 melanoma cells; 50 µM, 37°C, ** p < 0.005): 88 ± 7**
Number of cells which invaded/shifted to basement membrane (B16-BL6 melanoma cells; 500 µM, 37°C, ** p < 0.005): 36 ± 12**
inhibition rate ([2]; test group versus control group, 40 weeks): 95%
Number of mice in which tumor occurred (percentage) ([2]; zeaxanthin 0.005% in drinking water, 40 weeks, 12 mice (control 35.7%)): 8.3%
Number of mice in which tumor occurred ([2]; zeaxanthin 0.005% in drinking water, 40 weeks, 12 mice, liver tumors (control 5 of 14)): 1
Average number of tumors ([2]; zeaxanthin 0.005% in drinking water, 40 weeks, liver (control 1.75)): 0.08
LD50 at 168 h [3]: > 2000 mg/kg

CC1=C(/C=C/C(C)=C/C=C/C(C)=C/C=C/C=C(C)/C=C/C=C(C)/C=C/C2=C(C)CCCC2(C)C)C(C)(C)CCC1 [β-carotene, reference compound]
effect in inhibiting natural carcinogenesis ([2]; experiments conducted in the same manner as in Example 1): no such effect

Reference: patent EP0966960A1, “Agent for inhibiting carcinogenesis or tumor metastasis” (DAINIPPON INK AND CHEMICALS, INC., priority 1998, dated 1999)
